Source: the supplement of paper PMC10307832

How the values were obtained:
Assay in all cases: relative viability (nuclei count vs DMSO), 5 days (fraction); higher = more cells survive
[1] = compound: Nc1nc(Nc2ccc3c(c2)CC[C@@H](N2CCCC2)CC3)nn1-c1cc2c(nn1)-c1ccccc1CCC2 [Bemcentinib] + C[C@]1(O)C[C@@H](c2nc(-c3ccc4ccc(-c5ccccc5)nc4c3)c3c(N)nccn32)C1 [Linsitinib] (partner 1 µM)
Method in brief: (§1)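 Lung cancer cell lines in 1536-well plates were dosed by pin tool the day after seeding, either with one drug alone or with a fixed anchor-drug dose plus five library-drug doses (not always all listed) in √10 steps. After 5 days, cells were fixed and their nuclei stained in one step (final 0.05% Triton X-100, 1% formaldehyde, 1 ug/ml Hoechst), then counted on 4× images. Relative viability is the nuclei count in treated wells divided by that in vehicle wells. Values are medians of duplicate plates.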

[2] = compound: CC1=CC=C(C=C1)C(=O)CN2C3=C(CCCC3)SC2=N [Pifithrin_alpha] + CS(=O)(=O)N1CCN(Cc2cc3nc(-c4cccc5[nH]ncc45)nc(N4CCOCC4)c3s2)CC1 [Pictilisib] (partner 1 µM)
Method in brief: as §1

[3] = compound: CC1=CC=C(C=C1)C(=O)CN2C3=C(CCCC3)SC2=N [Pifithrin_alpha] + CC(=O)c1c(C)c2cnc(Nc3ccc(N4CCNCC4)cn3)nc2n(C2CCCC2)c1=O [Palbociclib] (partner 0.5 µM)
Method in brief: as §1

[4] = compound: Nc1nc(Nc2ccc3c(c2)CC[C@@H](N2CCCC2)CC3)nn1-c1cc2c(nn1)-c1ccccc1CCC2 [Bemcentinib] + CC1(C)CCC(c2ccc(Cl)cc2)=C(CN2CCN(c3ccc(C(=O)NS(=O)(=O)c4ccc(N[C@H](CCN5CCOCC5)CSc5ccccc5)c(S(=O)(=O)C(F)(F)F)c4)cc3)CC2)C1 [Navitoclax] (partner 0.5 µM)
Method in brief: as §1

Row | Cell Line | relative viability ([1]; first compound 0.04 µM) | relative viability ([1]; first compound 0.1265 µM) | relative viability ([1]; first compound 0.4 µM) | relative viability ([1]; first compound 1.265 µM) | relative viability ([1]; first compound 4 µM) | relative viability ([2]; first compound 1 µM) | relative viability ([2]; first compound 3.162 µM) | relative viability ([2]; first compound 10 µM) | relative viability ([2]; first compound 31.62 µM) | relative viability ([2]; first compound 100 µM) | relative viability ([3]; first compound 1 µM) | relative viability ([3]; first compound 3.162 µM) | relative viability ([3]; first compound 10 µM) | relative viability ([3]; first compound 31.62 µM) | relative viability ([3]; first compound 100 µM) | relative viability ([4]; first compound 0.04 µM) | relative viability ([4]; first compound 0.1265 µM) | relative viability ([4]; first compound 0.4 µM) | relative viability ([4]; first compound 1.265 µM) | relative viability ([4]; first compound 4 µM)
1 | NCI-H1563 | 1.24 | 1.15 | 1.21 | 1.15 | 1.19 | 0.53 | 0.688 | 0.61 | 0.65 | 0.705 | – | – | – | – | – | – | – | – | – | –
2 | EMC-BAC-2 | 0.816 | 0.845 | 0.879 | 0.889 | 0.871 | 0.511 | 0.566 | 0.55 | 0.456 | 0.545 | 0.493 | 0.542 | 0.489 | 0.422 | 0.506 | 1.15 | 1.35 | 1.27 | 1.2 | 1.23
3 | NCI-H596 | 1.03 | 1.03 | 1.03 | 1.17 | 1.06 | 0.354 | 0.349 | 0.379 | 0.342 | 0.392 | – | – | – | – | – | 0.955 | 0.994 | 1.11 | 1.04 | 1.14
4 | NCI-H2009 | 1.21 | 1.25 | 1.14 | 1.17 | 1.21 | 0.658 | 0.78 | 0.816 | 0.365 | 0.594 | 0.194 | 0.219 | 0.172 | 0.128 | 0.174 | 1.12 | 1.16 | 1.22 | 1.14 | 1.21
5 | HOP-62 | 1.12 | 0.986 | – | 1.08 | 0.99 | 0.376 | 0.822 | 0.875 | 0.342 | 0.804 | 0.45 | 0.483 | 0.396 | 0.335 | 0.52 | 1.04 | 0.97 | 1.16 | 0.995 | 1.13
6 | NCI-H2126 | 0.706 | 0.693 | 0.659 | 0.76 | 0.781 | 0.341 | 0.482 | 0.405 | 0.427 | 0.376 | 0.333 | 0.381 | 0.356 | 0.302 | 0.373 | 0.835 | 0.929 | 0.892 | 0.869 | 0.833
7 | HCC-15 | 0.828 | 0.983 | 0.923 | 0.904 | 0.93 | 0.691 | 0.754 | 0.673 | 0.458 | 0.715 | 0.514 | 0.731 | 0.765 | 0.516 | 0.625 | 0.713 | 0.799 | 0.776 | 0.726 | 0.721
8 | NCI-H23 | 0.576 | 0.692 | 0.554 | 0.72 | 0.568 | 0.491 | 0.459 | 0.491 | 0.343 | 0.365 | 0.537 | 0.413 | 0.445 | 0.351 | 0.413 | 0.779 | 0.869 | 1.08 | 0.813 | 0.778
9 | LCLC-97TM1 | 0.183 | 0.216 | – | 0.204 | 0.196 | – | 0.179 | 0.224 | – | 0.229 | – | 0.293 | 0.204 | – | 0.225 | 0.398 | 0.487 | – | 0.479 | 0.636
10 | SW 1573 | 0.884 | 0.753 | 0.855 | 0.966 | 0.835 | 0.596 | 0.595 | 0.59 | 0.438 | 0.491 | – | 0.395 | 0.367 | 0.241 | 0.266 | 0.868 | 0.979 | 1.09 | 1.18 | 0.97
11 | EKVX | 1.06 | 1.19 | 1.15 | 1.26 | 1.15 | 0.328 | 0.283 | 0.281 | 0.235 | 0.214 | 0.387 | 0.33 | 0.321 | 0.257 | 0.276 | 0.859 | 1.01 | 1.03 | 0.804 | 1.1
12 | HCC-44 | 0.702 | 0.74 | 0.736 | 0.714 | 0.771 | 0.433 | 0.475 | 0.539 | 0.408 | 0.423 | 0.825 | 0.922 | 0.867 | 0.81 | 0.812 | 1.09 | 1.13 | 1.01 | 1.12 | 1.02
13 | NCI-H1651 | 0.958 | 0.965 | 1.15 | 1.15 | 1.08 | 0.687 | 0.541 | 0.66 | 0.365 | 0.528 | 0.534 | 0.513 | 0.513 | 0.569 | 0.514 | 0.966 | 1.16 | 1.35 | 1.14 | 1.24
14 | COR-L23 | 1.04 | 0.935 | 1.2 | 1.17 | 0.844 | 0.736 | 0.75 | 0.731 | – | 0.695 | 0.287 | 0.26 | 0.281 | – | 0.267 | 1.14 | 1.11 | 1.1 | 1.03 | 1.03
15 | NCI-H1299 | 1.01 | 1.04 | 0.985 | 1.07 | 1.09 | 0.797 | 0.827 | 0.919 | 0.452 | 0.762 | – | – | – | – | – | 1.02 | 1.04 | 1.05 | 1.04 | 1
16 | NCI-H1734 | 0.856 | 0.913 | 0.952 | 1.01 | 0.836 | 0.494 | 0.491 | 0.481 | 0.381 | 0.434 | 0.38 | 0.362 | 0.33 | 0.313 | 0.355 | 0.872 | 0.986 | 0.94 | 0.886 | 0.875
17 | NCI-H1793 | 0.662 | 1.09 | 0.81 | 1.07 | 0.992 | 0.251 | 0.388 | 0.436 | 0.341 | 0.323 | 0.278 | 0.3 | 0.319 | 0.348 | 0.206 | 0.438 | 0.44 | 0.425 | 0.545 | 0.427
